Measurements taken from patent US10633389B2, “CARM1 inhibitors and uses thereof” (Epizyme, Inc., priority 2013, dated 2020).

Each compound was assayed on asymmetric di-methyl PABP1 in RKO cells (assay: RKO methylation assay, In Cell Western (ICW) for asymmetric di-methyl PABP1). Settings: Homo sapiens, RKO, Cellular potencies, ICW PABP1me2a.
Type: cell-based
Text: RKO adherent cells were purchased from ATCC (American Type Culture Collection), Manassas, Va., USA. DMEM/Glutamax medium, penicillin-streptomycin, heat inactivated fetal bovine serum, 0.05% trypsin and D-PBS were purchased from Life Technologies, Grand Island, N.Y., USA. Odyssey blocking buffer, 800 CW goat anti-rabbit IgG (H+L) antibody, and Licor Odyssey infrared scanner were purchased from Licor Biosciences, Lincoln, Nebr., USA. Asymmetric di-methyl PABP1 antibody was purchased from Cell Signaling Technology, Danvers, Mass., USA. Methanol was purchased from VWR, Franklin, Mass., USA. 10% Tween 20 was purchased from KPL, Inc., Gaithersburg, Md., USA. Paraformaldehyde (PFA) was purchased from EM Sciences. DRAQ5 was purchased from Biostatus Limited, Leicestershire, UK.
RKO adherent cells were maintained in growth medium (DMEM/Glutamax medium supplemented with 10% v/v heat inactivated fetal bovine serum and 100 units/mL penicillin-streptomycin) and cultured at 37° C. under 5% CO2.
Cell treatment, In Cell Western (ICW) for detection of asymmetric di-methyl PABP1 and DNA content: RKO cells were seeded in assay medium at a concentration of 30,000 cells per mL to a poly-D-lysine coated 384 well culture plate (BD Biosciences 356697) with 50 VL per well. Compound (100 nL) from a 96-well source plate was added directly to 384 well cell plate. Plates were incubated at 37° C., 5% CO2 for 48 hours. After two days of incubation, plates were brought to room temperature outside of the incubator for ten minutes and blotted on paper towels to remove cell media. Cells were fixed for 20 minutes at room temperature by adding 50 ul of 8% PFA followed by aspiration of supernatant with the Biotek EL406 plate washer. Cells were then permeabilized by addition of 50 μL of ice cold 100% methanol directly to each well and incubated for 30 min at room temperature. After 30 min, plates were transferred to a Biotek EL406 plate washer and washed 2 times with 100 μL per well of wash buffer (1×PBS). Next 60 μL per well of Odyssey blocking buffer (Odyssey Buffer with 0.1% Tween 20 (v/v)) were added to each plate and incubated 1 hour at room temperature. Blocking buffer was removed and 20 μL per well of primary antibody was added (asymmetric-methyl PABP1) diluted 1:400 in Odyssey buffer with 0.1% Tween 20 (v/v)) and plates were incubated overnight (16 hours) at 4° C. Plates were washed 5 times with 100 μL per well of wash buffer. Next 20 μL per well of secondary antibody was added (1:800 800 CW goat anti-rabbit IgG (H+L) antibody, 1:2000 DRAQ5 in Odyssey buffer with 0.1% Tween 20 (v/v)) and incubated for 1 hour at room temperature. The plates were washed 5 times with 100 μL per well wash buffer then 2 times with 100 μL per well of water. Plates were allowed to dry at room temperature then imaged on the Licor Odyssey machine which measures integrated intensity at 700 nm and 800 nm wavelengths. Both 700 and 800 channels were scanned.
First, the ratio for each well was determined by:
Each plate included fourteen control wells of DMSO only treatment (minimum inhibition) as well as fourteen control wells for maximum inhibition treated with 20 μM of a reference compound. The average of the ratio values for each control type was calculated and used to determine the percent […] for each test well in the plate. Reference compound was serially diluted three-fold in DMSO for a total of nine test concentrations, beginning at 20 μM.
Percent inhibition was determined and IC50 curves were generated using triplicate wells per concentration of compound. […]

CNC[C@@H](O)COc1ccc(Cl)c(-c2nc(-c3c(C)noc3C)c(C)c(N3CC4(CCN(C(=O)OC(C)C)CC4)C3)n2)c1 [Example 284-3] and CNC[C@H](O)COc1ccc(Cl)c(-c2nc(-c3c(C)noc3C)c(C)c(N3CCC4(CC3)CN(S(C)(=O)=O)C4)n2)c1 [Example 75-3] cannot be ordered by IC50: under 5 µM for the first, under 5 µM for the second.

CNC[C@H](O)COc1ccc(Cl)c(-c2nc(-c3c(C)noc3C)cc(N3CC4(CCN(C5CC5)CC4)C3)n2)c1 [Example 69-3] and CNC[C@H](O)COc1ccc(F)c(-c2nc(-c3c(C)noc3C)c(C)c(N3CCC4(CC3)CN(S(C)(=O)=O)C4)n2)c1 [Example 76-3] cannot be ordered by IC50: under 5 µM for the first, under 5 µM for the second.

CNCC(O)COc1cccc(-c2nc(-c3c(C)noc3C)c(C)c(N3CCC4(CC3)CN(C(=O)N(C)C)C4)n2)c1 (centres unmarked) [Example 252-1a] and CCOC(=O)N1CCN(c2nc(-c3cccc(OCC(O)CNC)c3)nc(-c3c(C)noc3C)c2C)CC1 (centres unmarked) [Example 77-1a] cannot be ordered by IC50: under 5 µM for the first, under 5 µM for the second.

CNC[C@@H](O)COc1ccc(Cl)c(-c2nc(-c3c(C)noc3C)c(C)c(N3CCC3)n2)c1 [Example 238-3] and CNC[C@@H](O)COc1ccc(Cl)c(-c2nc(N[C@H]3CCOC3)c(C)c(-c3c(C)noc3C)n2)c1 [Example 111-3] cannot be ordered by IC50: under 5 µM for the first, under 5 µM for the second.

CNCC(O)COc1cccc(-c2nc(N[C@@H]3CCOC3)c(C)c(N3C[C@H]4C[C@@H]3CN4C)n2)c1 (some centres unmarked) [Example 443-1a] and CNCC(O)COc1cccc(-c2nc(N[C@@H]3CCOC3)c(C)c(N3CCC3)n2)c1 (some centres unmarked) [Example 377-1a] fall in the same range of IC50: 10 to 20 µM for the first, 10 to 20 µM for the second.

CCOC(=O)N1CCCC[C@@H]1CNc1nc(-c2cc(OC[C@H](O)CNC)ccc2Cl)nc(-c2c(C)noc2C)c1C [Example 154-3] and CCOC(=O)N1CCOC[C@H]1CNc1nc(-c2cc(OC[C@@H](O)CNC)ccc2Cl)nc(-c2c(C)noc2C)c1C [Example 24-3] cannot be ordered by IC50: under 5 µM for the first, under 5 µM for the second.

First: CCOC(=O)N1CCC(Nc2nc(-c3cccc(OCC(O)CNC)c3)nc(-c3c(C)noc3C)c2C)C1 (centres unmarked) [Example 196-1a]
Second: CNCC(O)COc1cccc(-c2nc(NC3CN(C(=O)C4CC4)C3)c(C)c(-c3c(C)noc3C)n2)c1 (centres unmarked) [Example 264-1a]
The IC50 of the first is lower: under 5 µM for the first, 5 to 10 µM for the second. The first is the more potent here.

CNCC(O)COc1cccc(-c2nc(-c3cnc4ncccn34)cc(N(C)C3CCOCC3)n2)c1 (centres unmarked) [Example 489-1a] and CNCC(O)COc1cccc(-c2nc(N(C)c3cncnc3)cc(N(C)C3CCOCC3)n2)c1 (centres unmarked) [Example 487-1a] cannot be ordered by IC50: under 5 µM for the first, under 5 µM for the second.

CNC[C@@H](O)COc1ccc(Cl)c(-c2nc(N[C@H]3C[C@@](C)(OC)C3)c(C)c(-c3c(C)noc3C)n2)c1 [Example 110-3] and CNC[C@@H](O)COc1ccc(Cl)c(-c2nc(N[C@H]3CO[C@H](C)C3)c(C)c(-c3c(C)noc3C)n2)c1 [Example 198-3] cannot be ordered by IC50: under 5 µM for the first, under 5 µM for the second.

CNCC(O)COc1cccc(-c2nc(OCC3CCN(C(C)=O)CC3)c(C)c(-c3c(C)noc3C)n2)c1 (centres unmarked) [Example 287-1a] and CNCC(O)COc1cccc(-c2nc(-c3c(C)noc3C)c(C)c(N3CC[C@H](N(C)C(C)=O)C3)n2)c1 (some centres unmarked) [Example 71-1a] cannot be ordered by IC50: under 5 µM for the first, under 5 µM for the second.

CNCC(O)COc1cccc(-c2nc(NCC3(C)CCOCC3)c(C)c(-c3c(C)noc3C)n2)c1 (centres unmarked) [Example 115-1a] and CNCC(O)COc1cccc(-c2nc(NCC3(N(C)C)CCOCC3)c(C)c(-c3c(C)noc3C)n2)c1 (centres unmarked) [Example 140-1a] cannot be ordered by IC50: under 5 µM for the first, under 5 µM for the second.

CNCC(O)COc1ccc(Cl)c(-c2nc(NCC3CCOCC3)c(C)c(-c3c(C)noc3C)n2)c1 (centres unmarked) [Example 9-3] and CNC[C@@H](O)COc1ccc(Cl)c(-c2nc(NC[C@H]3CCOC3)c(C)c(-c3c(C)noc3C)n2)c1 [Example 233-3] cannot be ordered by IC50: under 5 µM for the first, under 5 µM for the second.

CNC[C@@H](O)COc1ccc(Cl)c(-c2nc(N[C@H]3CCO[C@H](C)C3)c(C)c(-c3c(C)noc3C)n2)c1 [Example 196-3] and CNCC(O)COc1ccc(Cl)c(-c2nc(NC3CCOCC3)c(C)c(-c3c(C)noc3C)n2)c1 (centres unmarked) [Example 29-3] cannot be ordered by IC50: under 5 µM for the first, under 5 µM for the second.

CNCC(O)COc1cccc(-c2nc(-c3c(C)noc3C)c(C)c(N3CCO[C@H](CN(C)C)C3)n2)c1 (some centres unmarked) [Example 151-1a] and CC[C@@H]1CN(c2nc(-c3cccc(OCC(O)CNC)c3)nc(-c3c(C)noc3C)c2C)CCN1S(C)(=O)=O (some centres unmarked) [Example 153-1a] cannot be ordered by IC50: under 5 µM for the first, under 5 µM for the second.

CNCC(O)COc1ccc(C)c(-c2nc(NC3CCN(C(=O)OC)CC3)c(C)c(-c3c(C)noc3C)n2)c1 (centres unmarked) [Example 125-3] and CNCC(O)COc1ccc(Cl)c(-c2nc(NC3CCN(C(=O)OC)CC3)c(C)c(-c3c(C)noc3C)n2)c1 (centres unmarked) [Example 270-1a] cannot be ordered by IC50: under 5 µM for the first, under 5 µM for the second.

CNCC(O)COc1cc(Cl)cc(-c2nc(-c3cn[nH]c3)c(C)c(N(C)C3CCOCC3)n2)c1 (centres unmarked) [Example 617-1a] and CNCC(O)COc1cc(Cl)cc(-c2nc(NC3CCOCC3)cc(-c3c(C)noc3C)n2)c1 (centres unmarked) [Example 7-1a] fall in the same range of IC50: 10 to 20 µM for the first, 10 to 20 µM for the second.

CNCC(O)COc1ccc(Cl)c(-c2nc(N[C@H]3CCN(C(=O)OC)C[C@H]3F)c(C)c(-c3c(C)noc3C)n2)c1 (some centres unmarked) [Example 4-3] and CNCC(O)COc1ccc(Cl)c(-c2nc(N[C@H]3CCC[C@@H](OC)C3)c(C)c(-c3c(C)noc3C)n2)c1 (some centres unmarked) [Example 57-3] cannot be ordered by IC50: under 5 µM for the first, under 5 µM for the second.

Compared with CNCC(O)COc1ccc(Cl)c(-c2nc(NC3CCOCC3)c(C)c(-c3c(CO)noc3C)n2)c1 (centres unmarked) [Example 273-3], CNCC(O)COc1ccc(Cl)c(-c2nc(NCC3COCCO3)c(C)c(-c3c(C)noc3C)n2)c1 (centres unmarked) [Example 41-3] is lower in IC50: 5 to 10 µM for the first, under 5 µM for the second. The second is the more potent here.

Going from CNCC(O)COc1cccc(-c2nc(-c3ccncc3)cc(N(C)C3CCNCC3)n2)c1 (centres unmarked) [Example 669-1a] to CNCC(O)COc1cccc(-c2nc(-c3ccc(S(C)(=O)=O)cc3)cc(N(C)C3CCOCC3)n2)c1 (centres unmarked) [Example 499-1a], the IC50 falls from at least 20 µM to under 5 µM. The second is the more potent here.

CNCC(O)COc1cccc(-c2nc(Nc3nncs3)c(C)c(-c3c(C)noc3C)n2)c1 (centres unmarked) [Example 215-1a] and CNCC(O)COc1cccc(-c2nc(N[C@H]3CC[C@H](O)C3)c(C)c(-c3c(C)noc3C)n2)c1 (some centres unmarked) [Example 135-1a] cannot be ordered by IC50: under 5 µM for the first, under 5 µM for the second.

First: CNCC(O)COc1cccc(-c2nc(-c3c(C)noc3C)cc(N3CCN(C(=O)N(C)C)[C@H](C)C3)n2)c1 (some centres unmarked) [Example 146-1a]
Second: CNCC(O)COc1cccc(-c2nc(-c3c(C)noc3C)cc(-c3c(C)noc3C)n2)c1 (centres unmarked) [Example 3-1a]
The IC50 of the first is lower: under 5 µM for the first, 10 to 20 µM for the second. The first is the more potent here.

CNC[C@@H](O)COc1ccc(F)c(-c2nc(-c3c(C)noc3C)c(Cl)c(N3CC4(CCOCC4)C3)n2)c1 [Example 294-3] and CNC[C@@H](O)COc1ccc(Cl)c(-c2nc(OC[C@@H]3CCOC3)c(C)c(-c3c(C)noc3C)n2)c1 [Example 126-3] cannot be ordered by IC50: under 5 µM for the first, under 5 µM for the second.

First: CNCC(O)COc1cccc(-c2nc(N[C@@H]3CCOC3)c(C)c(N3CCn4ccnc4C3)n2)c1 (some centres unmarked) [Example 359-1a]
Second: CNCC(O)COc1cccc(-c2nc(NC3CCOC3)c(C)c(N3CCN[C@@H](C)C3)n2)c1 (some centres unmarked) [Example 351-1a]
The IC50 of the first is higher: 10 to 20 µM for the first, 5 to 10 µM for the second. The second is the more potent here.

CNCC(O)COc1cccc(-c2nc(NCC3CCOCC3)c(Cl)c(-c3c(C)noc3C)n2)c1 (centres unmarked) [Example 142-1a] and CNCC(O)COc1cccc(-c2nc(NC3CCOCC3)c(C)c(-c3c(C)noc3C3CC3)n2)c1 (centres unmarked) [Example 236-1a] cannot be ordered by IC50: under 5 µM for the first, under 5 µM for the second.

CNC[C@H](O)COc1ccc(Cl)c(-c2nc(NCCC(C)(C)OC)c(C)c(-c3c(C)noc3C)n2)c1 [Example 82-3] and CNCC(O)COc1cccc(-c2nc(NC3CCN(CC(F)F)C3)c(C)c(-c3c(C)noc3C)n2)c1 (centres unmarked) [Example 195-1a] cannot be ordered by IC50: under 5 µM for the first, under 5 µM for the second.

First: CCS(=O)(=O)N1CC2(CN(c3nc(-c4cccc(OCC(O)CNC)c4)nc(-c4c(C)noc4C)c3C)C2)C1 (centres unmarked) [Example 16-3]
Second: CNCC(O)COc1cccc(-c2nc(-c3c(C)noc3C)cc(-c3cnc4cnccn34)n2)c1 (centres unmarked) [Example 112-1a]
The IC50 of the first is lower: under 5 µM for the first, 10 to 20 µM for the second. The first is the more potent here.

Compound CNCC(O)COc1cccc(-c2nc(NC3CCOCC3)c(C)c(N3CCN(C(C)C)CC3)n2)c1 (centres unmarked) [Example 644-1a] has an IC50 of at least 20 µM.
